In patent US10174033B2, “N6-substituted adenosine derivatives and N6-substituted adenine derivatives and uses thereof” (INSTITUTE OF MATERIA MEDICA, CHINESE ACADEMY OF MEDICAL …, priority 2009, dated 2019):

Test system: male ICR-mice
Experiment: Potentiation of sodium pentobarbital sleeping time test
Format: in vivo
Protocol: Effects of N^6-substituted adenosine derivatives and/or N^6-substituted adenine derivatives on sodium pentobarbital-induced sleeping time in mice.
Name of Experiment: Potentiation of sodium pentobarbital sleeping time test.
Method of Experiment: Groups of 8-10 male ICR-mice with an average weight of 18-22 g were used. They were dosed orally or i.p. with the test compound or the vehicle. Thirty min after i.p. injection or 60 min after oral dosing 38 mg/kg sodium pentobarbital were injected intravenously. The latency and duration of sleep (loss of righting reflex) were recorded. The percentage of prolongation of sleeping time was calculated as: [(sleeping time of experimental group)−(sleeping time of control group)]/(sleeping time of control group)×100%.

[1] = oral, 5 mg/kg, 38 mg/kg sodium pentobarbital 60 min later
[2] = intraperitoneal, 1 mg/kg, 38 mg/kg sodium pentobarbital 30 min later
[3] = oral, 2.5 mg/kg, 38 mg/kg sodium pentobarbital 60 min later
[4] = intraperitoneal, 5 mg/kg, 38 mg/kg sodium pentobarbital 30 min later

Molecule: CCCC(=O)Oc1ccc(CNc2ncnc3c2ncn3[C@@H]2O[C@H](CO)[C@@H](O)[C@H]2O)cc1OC [N^6-(3-methoxy-4-butanoyloxy-benzyl)-adenosine]
- Sleep prolonging rate (%) [1]: 11%

Molecule: OC[C@H]1O[C@@H](n2cnc3c(NC4c5ccccc5-c5ccccc54)ncnc32)[C@H](O)[C@@H]1O [Example 98, N^6-(fluorene-9-yl)-adenosine]
- Sleep prolonging rate (%) [1]: 53%

Molecule: CCCOC[C@H]1O[C@@H](n2cnc3c(NC(C)c4cc(OC)c(OC)c(OC)c4)ncnc32)C(O)C1O (mixture of isomers) [Example 55, N^6-[(±)-1-(3,4,5-trimethoxyphenyl)-ethyl]-adenosine-5′-propyl ether]
- Sleep prolonging rate (%) [1]: 14%

Molecule: C[C@@H](Nc1ncnc2c1ncn2[C@@H]1O[C@H](CO)[C@@H](O)[C@H]1O)c1ccc(Cl)cc1 [Example 68, N^6-[(R)-1-(4-chlorophenyl)-ethyl]-adenosine]
- Sleep prolonging rate (%) [1]: 103%

Molecule: OC[C@H]1O[C@@H](n2cnc3c(NCCc4ccc(O)c(O)c4)ncnc32)C(O)C1O (stereo partly shown) [Example 38]
- Sleep prolonging rate (%) [2]: 98%
- Sleep prolonging rate (%) [1]: 69%

Molecule: OC[C@H]1O[C@@H](n2cnc3c(NC(Cc4ccccc4)c4ccccc4)ncnc32)C(O)C1O (mixture of isomers) [Example 94, N^6-[(±)-1-(1,2-diphenyl)-ethyl]-adenosine]
- Sleep prolonging rate (%) [1]: 36%

Molecule: CC[C@H](Nc1ncnc2c1ncn2[C@@H]1O[C@H](CO)[C@@H](O)[C@H]1O)c1ccccc1 [Example 78, N^6-[(S)-1-(phenyl)-propyl]-adenosine]
- Sleep prolonging rate (%) [3]: 49%

Molecule: COC(=O)[C@@H](Cc1ccccc1)Nc1ncnc2c1ncn2[C@@H]1O[C@H](CO)C(O)C1O (stereo partly shown) [Example 105, N-(6-adenosine)-(D)-phenylalanine methyl ester]
- Sleep prolonging rate (%) [1]: 2%

Molecule: O=C(O)[C@@H]1CCCN1c1ncnc2c1ncn2[C@@H]1O[C@H](CO)C(O)C1O (stereo partly shown) [Example 118, N-(6-adenosine)-(L)-proline]
- Sleep prolonging rate (%) [4]: 29%

Molecule: COc1cccc([C@H](C)Nc2ncnc3c2ncn3[C@@H]2O[C@H](CO)[C@@H](O)[C@H]2O)c1 [Example 66, N^6-[(S)-1-(3-methoxyphenyl)-ethyl]-adenosine]
- Sleep prolonging rate (%) [1]: 39%

Molecule: OC[C@H](Nc1ncnc2c1ncn2[C@@H]1O[C@H](CO)C(O)C1O)[C@@H](O)c1ccccc1 (stereo partly drawn) [Example 41, N^6-[(1S,2S)-2-(1,3-dihydroxy-1-phenyl)-propyl]-adenosine]
- Sleep prolonging rate (%) [1]: 33%

Molecule: CC[C@H](Nc1ncnc2c1ncn2[C@@H]1O[C@H](COC(=O)/C=C/c2ccc(C)cc2)C(O)C1O)c1ccccc1 (stereo in doubt) [Example 82, N^6-[(S)-1-(phenyl)-propyl]-adenosine-5′-p-methyl-cinnamate]
- Sleep prolonging rate (%) [1]: 50%

Molecule: OCCN(Cc1ccccc1)c1ncnc2c1ncn2[C@@H]1O[C@H](CO)[C@@H](O)[C@H]1O [Example 138, N^6-(2-hydroxyethyl)-N^6-benzyl-adenosine]
- Sleep prolonging rate (%) [1]: 18%

Molecule: N^6-[(R)-1-(phenyl)-propyl]-2′,3′-O-isopropylidene-adenosine-5′-acetate
- Sleep prolonging rate (%) [1]: 18%

Molecule: OCC(CO)Nc1ncnc2c1ncn2[C@@H]1O[C@H](CO)C(O)C1O (stereo partly shown) [Example 129, N^6-[2-(1,3-dihydroxy)-propyl]-adenosine]
- Sleep prolonging rate (%) [1]: 184%

Molecule: COc1cccc([C@@H](C)Nc2ncnc3c2ncn3[C@@H]2O[C@H](CO)[C@@H](O)[C@H]2O)c1 [Example 65, N^6-[(R)-1-(3-methoxyphenyl)-ethyl]-adenosine]
- Sleep prolonging rate (%) [1]: 160%

Molecule: CC[C@H](Nc1ncnc2c1ncn2[C@@H]1O[C@H](COC(C)=O)C(O)C1O)c1ccccc1 (stereo partly drawn) [Example 80, N^6-[(S)-1-(phenyl)-propyl]-adenosine-5′-acetate]
- Sleep prolonging rate (%) [1]: 24%

Molecule: OC[C@@H](Nc1ncnc2c1ncn2[C@@H]1O[C@H](CO)[C@@H](O)[C@H]1O)c1ccccc1 [Example 64, N^6-[(L)-2-(hydroxy)-1-(phenyl)-ethyl]-adenosine]
- Sleep prolonging rate (%) [1]: 67%

Molecule: CSCC[C@@H](CO)Nc1ncnc2c1ncn2[C@@H]1O[C@H](CO)C(O)C1O (stereo partly shown) [Example 132, N^6-[(L)-2-(1-hydroxy-4-methylthioyl)-butyl]-adenosine]
- Sleep prolonging rate (%) [1]: 53%

Molecule: CCN(Cc1ccccc1)c1ncnc2c1ncn2[C@@H]1O[C@H](CO)[C@@H](O)[C@H]1O [Example 134, N^6-ethyl-N^6-benzyl-adenosine]
- Sleep prolonging rate (%) [1]: 7%

Molecule: OC[C@H]1O[C@@H](n2cnc3c(NCc4cccs4)ncnc32)[C@H](O)[C@@H]1O [Example 19, N^6-(2-thiopheneylmethyl)-adenosine]
- Sleep prolonging rate (%) [4]: 12%

Molecule: O=C(O)[C@H](Cc1ccc(O)cc1)Nc1ncnc2c1ncn2[C@@H]1O[C@H](CO)C(O)C1O (stereo partly shown) [Example 107, N-(6-adenosine)-(L)-tyrosine]
- Sleep prolonging rate (%) [4]: 66%

Molecule: Cc1ccc([C@H](C)Nc2ncnc3c2ncn3[C@@H]2O[C@H](CO)[C@@H](O)[C@H]2O)cc1 [Example 60, N^6-[(S)-1-(4-methylphenyl)-ethyl]adenosine]
- Sleep prolonging rate (%) [1]: 19%

Molecule: COc1cc(CNc2ncnc3c2ncn3[C@@H]2O[C@H](CO)C(O)C2O)cc(OC)c1OC (stereo partly shown) [Example 37, N^6-(3,4,5-trimethxoybenzyl)-adenosine]
- Sleep prolonging rate (%) [2]: 112%

Molecule: COc1cc(C(C)Nc2ncnc3c2ncn3[C@@H]2O[C@H](CO)[C@@H](O)[C@H]2O)ccc1O (mixture of isomers) [Example 50, N^6-[(±)-1-(3-methoxy-4-hydroxy-phenyl)-ethyl]-adenosine]
- Sleep prolonging rate (%) [1]: 119%

Molecule: CCCCCCCC(=O)OC[C@H]1O[C@@H](n2cnc3c(NC(C)c4cc(OC)c(OC)c(OC)c4)ncnc32)[C@H](O)[C@@H]1O (mixture of isomers) [Example 53, N^6-[(±)-1-(3,4,5-trimethoxyphenyl)-ethyl]-adenosine-5′-caprylate]
- Sleep prolonging rate (%) [1]: 130%

Molecule: COc1cc(C(C)Nc2ncnc3c2ncn3[C@H]2C[C@H](O)[C@@H](CO)O2)cc(OC)c1OC (mixture of isomers) [Example 157, N^6-[(±)-1-(3,4,5-trimethoxyphenyl)-ethyl]-2′-deoxy-adenosine]
- Sleep prolonging rate (%) [1]: 9%

Molecule: CCCCCCCC(=O)OC[C@H]1O[C@@H](n2cnc3c(NCc4ccc5c(c4)OCO5)ncnc32)[C@H](O)[C@@H]1O [Example 32, N^6-(3,4-methylenedioxybenzyl)-adenosine-5′-caprylate]
- Sleep prolonging rate (%) [1]: 26%

Molecule: OC[C@H]1O[C@@H](n2cnc3c(N[C@H](CO)[C@H](O)c4ccccc4)ncnc32)C(O)C1O (stereo partly drawn) [Example 42, N^6-[(1R,2R)-2-(1,3-dihydroxy-1-phenyl)-propyl]-adenosine]
- Sleep prolonging rate (%) [1]: 4%

Molecule: CC(=O)OC[C@H]1O[C@@H](n2cnc3c(NCc4ccc5c(c4)OCO5)ncnc32)C[C@H]1OC(C)=O [Example 154, N^6-(3,4-methylenedioxy-benzyl)-3′,5′-diacetyl-2′-deoxyadenosine]
- Sleep prolonging rate (%) [1]: 29%

Molecule: CCCCCCCC(=O)OC[C@H]1O[C@@H](n2cnc3c(NCc4ccc(OC(=O)CCCCCCC)c(OC)c4)ncnc32)[C@H](O)[C@@H]1O [Example 26, N^6-(3-methoxy-4-octanoyloxybenzyl)-adenosine-5′-caprylate]
- Sleep prolonging rate (%) [1]: 184%

Molecule: CCC(Nc1ncnc2c1ncn2[C@@H]1O[C@H](CO)[C@@H](O)[C@H]1O)c1ccccc1 (mixture of isomers) [Example 72, N^6-[(±)-1-(phenyl)-propyl]-adenosine]
- Sleep prolonging rate (%) [3]: 135%

Molecule: CC(O)CN(CC(C)O)c1ncnc2c1ncn2[C@@H]1O[C@H](CO)[C@@H](O)[C@H]1O (stereo partly shown) [Example 140, N^6,N^6-bis(2-hydroxypropyl)-adenosine]
- Sleep prolonging rate (%) [1]: 5%

Molecule: CCC(Nc1ncnc2c1ncn2[C@@H]1O[C@H](CO)[C@@H](O)[C@H]1O)c1ccc(OC)cc1 (mixture of isomers) [Example 74, N^6-[(±)-1-(4-methoxyphenyl)-propyl]-adenosine]
- Sleep prolonging rate (%) [3]: 86%

Molecule: N^6-[(±)-1-(3,4,5-trimethoxyphenyl)-ethyl]-adenosine-5′-decanoic ether [Example 56]
- Sleep prolonging rate (%) [1]: 2%

Molecule: C[C@H]([C@@H](O)c1ccccc1)N(C)c1ncnc2c1ncn2[C@@H]1O[C@H](CO)C(O)C1O (stereo partly drawn) [Example 135, N^6-methyl-N^6-[2-(1S,2R)-(1-hydroxy-1-phenyl)-propyl]-adenosine]
- Sleep prolonging rate (%) [1]: 39%

Molecule: CCCCCCCCCCCC(=O)OCC1OC(n2cnc3c(NCc4ccc(OC(=O)CCCCCCCCCCC)c(OC)c4)ncnc32)C2OC(C)(C)OC12 (stereo not shown) [Example 25, N^6-(3-methoxy-4-lauroyloxybenzyl)-2′,3′-O-isopropylidene-adenosine-5′-laurate]
- Sleep prolonging rate (%) [1]: 27%

Molecule: CCCOC[C@H]1O[C@@H](n2cnc3c(NCc4ccc5c(c4)OCO5)ncnc32)C(O)C1O (stereo partly shown) [Example 35, N^6-(3,4-methylenedioxybenzyl)-adenosine-5′-propyl ether]
- Sleep prolonging rate (%) [1]: 36%

Molecule: CC[C@@H](Nc1ncnc2c1ncn2[C@@H]1O[C@H](COC(C)=O)C(OC(C)=O)C1OC(C)=O)c1ccccc1 (stereo partly drawn) [Example 76, N^6-[(R)-1-(phenyl)-propyl]-adenosine-2′,3′,5′-triacetate]
- Sleep prolonging rate (%) [1]: 339%

Molecule: CC(Nc1ncnc2c1ncn2[C@@H]1O[C@H](CO)[C@@H](O)[C@H]1O)c1ccc(N)cc1 (mixture of isomers) [Example 48, N^6-[(±)-1-(4-aminophenyl)-ethyl]-adenosine]
- Sleep prolonging rate (%) [3]: 132%

Molecule: CC[C@H](C)[C@@H](CO)Nc1ncnc2c1ncn2[C@@H]1O[C@H](CO)C(O)C1O (stereo partly shown) [Example 131, N^6-[(L)-2-(1-hydroxy-3-methyl)-pentyl]-adenosine]
- Sleep prolonging rate (%) [1]: 36%

Molecule: C[C@H](Nc1ncnc2c1ncn2[C@@H]1O[C@H](CO)[C@@H](O)[C@H]1O)c1ccc(F)cc1 [Example 71, N^6-[(S)-1-(4-fluorophenyl)-ethyl]-adenosine]
- Sleep prolonging rate (%) [1]: 24%
